In PMC2033546, “Effects of somatostatin analogue RC-160 and bombesin/gastrin-releasing peptide antagonists on the growth of human small-cell and non-small-cell lung carcinomas in nude mice” (British Journal of Cancer, 1994):
Where no end group is shown, it is not given here. [ ]: non-standard residue; d: D form.

Legend:
SCLC H69 tumours = experiment: Histology (mitosis, apoptosis, necrosis) of SCLC H69 tumours; format: in vivo, human (xenograft in nude mice); settings: Table II, Experiment I (SCLC H69); control 0.96 ? 0.1; means ? s.e.; *P < 0.05 vs control
Text: (§1) Br. J. Cancer (1994). 70, 886 892 ? Macmillan Press Ltd.. […] Bombesin GRP antagonists. […] Lung carcinoma is the leading cause of cancer-related deaths in the western world. It is estimated that in 1992 there were approximately 168,000 new cases of lung cancer in the US and that about 146,000 deaths occurred from this disease (Boring et al., 1992). […] The growth factors such as bombesin/gastrin-releasing pep- tide (GRP), epidermal growth factor, (EGF), transforming growth factor a (TGF-x) and insulin-like growth factor I(IGF-I) appear to play a role in the proliferation and pro- gression of lung cancer (Cuttitta et al., 1985; Veale et al., 1987; Minuto et al., 1988; Siegfried & Owens, 1988; Macaulay et al., 1990; Tateishi et al., 1991; Damstrup et al., 1992; Sethi & Rozengurt, 1992; Rabiasz et al., 1992; Moody & Cuttitta, 1993). […] Tpi is 2,3,4,9-tetrahydro- Correspondence: A.V. Schally (151). VA Medical Center, 1601 Per- dido Street. New Orleans, LA 70146. USA. Received 1 March 1994; and in revised form 5 July 1994. Br. J. Cancer (1994), 70, 886-892 C Macmillan Press Ltd., 1994 PEPTIDE ANALOGUES IN LUNG CANCER 8U7 lH-pyrido [3,4bjindol-3-carboxylic acid, a conformationally constrained secondary amine derivate of tryptophan and Tac is thiazolidine-4-carboxylic acid. […] Animals Male athymic NCr nulmu nude mice, approximately 6 weeks old on arrival, were obtained from the NCI (Bethesda, MD, USA) and maintained under pathogen-limited conditions. Cell lines The human SCLC cell line NCI-H69, was obtained from the American Type Cell Culture (ATCC), Rockville, MD, USA and the non-SCLC cell line NCI-H157, from Dr H. Oie, NCI-Navy Medical Oncology Branch, Bethesda, MD, USA. These cell lines were cultured in RPMI-1640 medium supple- mented with 4 mM L-glutamine, 50 units ml-I penicilln G sodium, SOigml-' streptomycin sulphate, 0.125pgml-' amphotericin B and 10% fetal bovine serum at 3TC in a humidified 95% air/5% carbon dioxide atmosphere. CeLs were passaged weekly and routinely monitored for myco- plasma contamination using a detection kit (Boehringer- Mannheim, Mannheim, Germany). All culture media com- ponents were purchased from Gibco (Grand Island, NY, USA). Receptor assays Preparation of membranes for receptor studies was described previously (Halmos et al., 1993). Iodinated EGF and IGF-I were purchased from Amersham (Arlington Heights, IL, USA). Radioiodination of other peptides and receptor bind- ing of EGF, IGF-I, somatostatin and bombesin/GRP were performed as previously described (Srkalovic et al., 1989; Szepeshazi et al., 1992). Complete displacement assays on tumour membranes were done only once because of the shortage of tumour material. The LIGAND PC computerised curve-fitting programme of Munson and Rodbard (1980) was used to determine the types of receptor binding, dissociation constant (Kd) values, and the maximal binding capacity (BDj) of receptors. In order to determine the specificity of the binding sites for radiolabelled EGF, IGF-I, somatostatin and bombesin to lung cancer membranes, various structuraly related and unrelated peptides were tested for their ability to inhibit the binding of the tracers. Histological procedure The histological procedures were the same as described previously (Szepeshazi et al., 1991, 1992). The number of mitotic and apoptotic cells per 1,000 cells was determined, and the percentage area of necrosis in tumour sections was examined using the point-counting method (Szepeshazi et al., 1991, 1992), in which the crossing points of an ocular net that coincide with necrosis in various sections are counted. Radiommunoassays Serum levels of growth hormone were determined by double- antibody radioimmunoassay (RIA) using materials supplied by the National Hormone and Pituitary Program of the National Institute of Diabetes and Digestive and Kidney Diseases (NIDDK).

human SCLC cell line H69 = experiment: [3H]Thymidine incorporation assay in H69 cells; format: cell-based; settings: for [3H]Thymidine incorporation: Table V, mean s.e.
Text: as §1

[1] = system: EGF receptors in membranes of non-SCLC H157 tumours; experiment: EGF receptor binding on H157 tumour membranes after in vivo treatment; parameters: species or system human
Text: as §1, with “Receptor assays Preparation of membranes for receptor studies was described previously (Halmos et al., 1993). Iodinated EGF and IGF-I were purchased from Amersham (Arlington Heights, IL, USA). Radioiodination of other peptides and receptor bind- ing of EGF, IGF-I, somatostatin and bombesin/GRP were performed as previously described (Srkalovic et al., 1989; Szepeshazi et al., 1992). Complete displacement assays on tumour membranes were done only once because of the shortage of tumour material. The LIGAND PC computerised curve-fitting programme of Munson and Rodbard (1980) was used to determine the types of receptor binding, dissociation constant (Kd) values, and the maximal binding capacity (BDj) of receptors. In order to determine the specificity of the binding sites for radiolabelled EGF, IGF-I, somatostatin and bombesin to lung cancer membranes, various structuraly related and unrelated peptides were tested for their ability to inhibit the binding of the tracers. Histological procedure The histological procedures were the same as described previously (Szepeshazi et al., 1991, 1992).” left out

## [dF]CY[dW]KVCW-NH2 (cysteine pairing not given here) [RC-160, Somatostatin analogue RC-160]
SCLC H69 tumours
  Ratio of apoptotic to mitotic indices: 2.27 ± 0.5*
Human SCLC cell line H69; "At 0.0 ILg ml-'" RC-160, 5 days of incubation, H69 cells
  Suppression of DNA synthesis: about 43%
Human SCLC cell line H69; RC-160 0.001 to 10.0 µg/ml, 5 days, RC-3005 or RC-3009 5.0 and 25.0 µg/ml, 3 days
  [3H]thymidine incorporation into DNA of H69 cells (in words): significantly inhibited
Human SCLC cell line H69; 0.001 µg/ml, 5 days, *P<0.05 vs control
  [3H]Thymidine incorporation: 81.6 4.6* per cent of control
Human SCLC cell line H69; 0.01 µg/ml, 5 days, *P<0.05 vs control
  [3H]Thymidine incorporation: 80.0 4.1* per cent of control
Human SCLC cell line H69; 0.1 µg/ml, 5 days, **P<0.01 vs control
  [3H]Thymidine incorporation: 71.6 ± 3.4** per cent of control
[1]; Table IV, Experiment II (non-SCLC H157), tumour membranes after in vivo treatment, control 249, done once
  EGF maximal binding capacity (Bmax): 100 fmol mg' protein
[1]; after in vivo treatment
  EGF binding capacity on H157 tumours (in words): decreased
